The values that follow come from patent US20250049741A1, “COMPOSITION FOR PREVENTING OR TREATING ALZHEIMER'S DISEASE COMPRISING PHOSPHOLIPASE C ACTIVATOR AS AN ACTIVE INGREDIENT” (Korea University Research and Business Foundation, priority 2021, published 2025).

Assay [1] concerns 5XFAD mice. Nature of the assay: Contextual fear conditioning (CFC), freezing response. It is filed as in vivo. To be noted: m-3M3FBS-injected 5XFAD mice. From the text:
To test the acute effect of AβO on hippocampal S-eCB mobilization, hippocampal slices from Sprague-Dawley rats (SD, 2 to 3 weeks old, […] Biolink, Co., Ltd., Korea) were used. Male and female rats were used in all in vitro experiments. To test the chronic effect of AβO on hippocampus-dependent memory impairments caused by amyloidosis, the 5XFAD mouse model (6 to 7 months old, #34840-JAX, Jackson Laboratory, USA), which is a mouse model of Alzheimer's disease that mimics AβO depositions, was used. C57BL/6 mice (6 to 7 months old, KOATECH, Korea) were used as wild type (WT) control mice for 5XFAD mice. Male 5XFAD and C57BL/6 mice were used for all in vivo behavioral experiments. […] A ceiling-mounted video camera recorded the behavior activity, and fed the corresponding video into a customized computer software (MATLAB, USA). […] Behavioral mobility data collected during the contextual conditioning experiments were automatically detected using the gray scaling method of EthoVision XT (Noldus, USA). […] Since a body-freezing response (freezing) is considered a conditioned response to CFC during the memory session, the body-freezing response was detected when the threshold was below the 2.0% threshold of mobility. That is, this means that there could be no more than a 2.0% change in the pixels of a detected mouse between the current sample and the previous sample. […]

Assay [2] concerns PLCβ1. Nature of the assay: Western blot of hippocampal PLCβ1 after stereotaxic drug injection in 5XFAD mice. To be noted: m-3M3FBS (50 μM, 0.5 μl per site) injected into dorsal and ventral bilateral hippocampi; three days after injection. It is filed as in vivo. An excerpt: To test the acute effect of AβO on hippocampal S-eCB mobilization, hippocampal slices from Sprague-Dawley rats (SD, 2 to 3 weeks old, […] Biolink, Co., Ltd., Korea) were used. Male and female rats were used in all in vitro experiments. To test the chronic effect of AβO on hippocampus-dependent memory impairments caused by amyloidosis, the 5XFAD mouse model (6 to 7 months old, #34840-JAX, Jackson Laboratory, USA), which is a mouse model of Alzheimer's disease that mimics AβO depositions, was used. C57BL/6 mice (6 to 7 months old, KOATECH, Korea) were used as wild type (WT) control mice for 5XFAD mice. Male 5XFAD and C57BL/6 mice were used for all in vivo behavioral experiments. The 5XFAD mouse genotypes were identified by polymerase chain reaction (PCR) using DNA extracted from the tails of the mice. All animal-related procedures followed the guidelines of the Institutional Animal Care and Use Committee of Korea University (guidelines for SD rats: KUIACUC-2017-103, guidelines for C57BL/6 and 5XFAD mice: KUIACUC-2019-0068). […] Immunoreactivity was confirmed with enhanced chemiluminescence (Bio-Rad, USA) using a Fluorchem E system (ProteinSimple, USA) and analyzed with ImageJ software. […]

SMILES strings stand for the structures.

With `Cc1cc(C)c(S(=O)(=O)Nc2cccc(C(F)(F)F)c2)c(C)c1` [m-3M3FBS], the “freezing responses during memory recall compared to DMSO-injected 5XFAD mice” value in assay [1] was “remarkably increased”. In assay [2], the “hippocampal PLCβ1 protein levels in 5XFAD mice” value is on record as “completely recovered”.
